Laboratory results as given in the NIST ThermoML archive (doi:10.1016/j.jct.2016.05.015).
± gives the expanded uncertainty stated by the source.

Assay: xn = mol fraction of the nth substance listed
Conditions: 100 kPa, Liquid; for viscosity: Capillary tube (Ostwald / Ubbelohde) method; for speed of sound: Frequency=2 MHz, Linear variable-path acoustic interferometer; for mass density: Vibrating tube method

Nc1cccc(Cl)c1 [3-chlorobenzenamine] + Brc1ccccc1
Conditions | mass density [kg/m3] | speed of sound [m/s] | viscosity [mPa·s]
303.15 K, x1 = 0.0902 | 1457.14 ± 20 | 1162.5 ± 7.1 | 1.364 ± 0.1
303.15 K, x1 = 0.1842 | 1431.71 ± 20 | 1191.5 ± 7.3 | 1.741 ± 0.1
303.15 K, x1 = 0.2789 | 1406 ± 20 | 1222.1 ± 7.5 | 2.101 ± 0.1
303.15 K, x1 = 0.3759 | 1379.47 ± 20 | 1255.1 ± 7.7 | 2.454 ± 0.1
303.15 K, x1 = 0.4745 | 1352.34 ± 20 | 1290.5 ± 7.9 | 2.795 ± 0.1
303.15 K, x1 = 0.5763 | 1324.09 ± 20 | 1329.2 ± 8.1 | 3.131 ± 0.1
303.15 K, x1 = 0.6782 | 1295.62 ± 20 | 1370.2 ± 8.4 | 3.446 ± 0.1
303.15 K, x1 = 0.7852 | 1265.62 ± 20 | 1416 ± 8.6 | 3.752 ± 0.1
303.15 K, x1 = 0.8914 | 1235.79 ± 20 | 1464.5 ± 8.9 | 4.022 ± 0.1
303.15 K, x1 = 1 | 1205.32 ± 20 | 1517.5 ± 9.3 | 4.255 ± 0.1
308.15 K, x1 = 0.0902 | 1451.19 ± 20 | 1148.3 ± 7 | 1.307 ± 0.1
308.15 K, x1 = 0.1842 | 1425.93 ± 20 | 1177.1 ± 7.2 | 1.65 ± 0.1
308.15 K, x1 = 0.2789 | 1400.36 ± 20 | 1207.4 ± 7.4 | 1.976 ± 0.1
308.15 K, x1 = 0.3759 | 1373.99 ± 20 | 1240.2 ± 7.6 | 2.291 ± 0.1
308.15 K, x1 = 0.4745 | 1346.99 ± 20 | 1275.4 ± 7.8 | 2.593 ± 0.1
308.15 K, x1 = 0.5763 | 1318.91 ± 20 | 1313.8 ± 8 | 2.888 ± 0.1
308.15 K, x1 = 0.6782 | 1290.63 ± 20 | 1354.7 ± 8.3 | 3.166 ± 0.1
308.15 K, x1 = 0.7852 | 1260.78 ± 20 | 1400.3 ± 8.6 | 3.427 ± 0.1
308.15 K, x1 = 0.8914 | 1231.09 ± 20 | 1448.6 ± 8.8 | 3.657 ± 0.1
308.15 K, x1 = 1 | 1200.75 ± 20 | 1501.2 ± 9.2 | 3.842 ± 0.1
313.15 K, x1 = 0.0902 | 1444.19 ± 20 | 1134.9 ± 6.9 | 1.223 ± 0.1
313.15 K, x1 = 0.1842 | 1419.21 ± 20 | 1163 ± 7.1 | 1.533 ± 0.1
313.15 K, x1 = 0.2789 | 1393.88 ± 20 | 1192.8 ± 7.3 | 1.826 ± 0.1
313.15 K, x1 = 0.3759 | 1367.75 ± 20 | 1224.9 ± 7.5 | 2.104 ± 0.1
313.15 K, x1 = 0.4745 | 1340.99 ± 20 | 1259.3 ± 7.7 | 2.372 ± 0.1
313.15 K, x1 = 0.5763 | 1313.18 ± 20 | 1296.9 ± 7.9 | 2.632 ± 0.1
313.15 K, x1 = 0.6782 | 1285.16 ± 20 | 1336.9 ± 8.2 | 2.876 ± 0.1
313.15 K, x1 = 0.7852 | 1255.6 ± 20 | 1381.6 ± 8.4 | 3.105 ± 0.1
313.15 K, x1 = 0.8914 | 1226.16 ± 20 | 1428.7 ± 8.7 | 3.293 ± 0.1
313.15 K, x1 = 1 | 1196.02 ± 20 | 1480.3 ± 9 | 3.43 ± 0.1
318.15 K, x1 = 0.0902 | 1437.77 ± 20 | 1124.6 ± 6.9 | 1.155 ± 0.1
318.15 K, x1 = 0.1842 | 1412.99 ± 20 | 1152.3 ± 7 | 1.437 ± 0.1
318.15 K, x1 = 0.2789 | 1387.82 ± 20 | 1181.7 ± 7.2 | 1.692 ± 0.1
318.15 K, x1 = 0.3759 | 1361.85 ± 20 | 1213.3 ± 7.4 | 1.934 ± 0.1
318.15 K, x1 = 0.4745 | 1335.26 ± 20 | 1247.3 ± 7.6 | 2.165 ± 0.1
318.15 K, x1 = 0.5763 | 1307.62 ± 20 | 1284.5 ± 7.8 | 2.388 ± 0.1
318.15 K, x1 = 0.6782 | 1279.81 ± 20 | 1324 ± 8.1 | 2.595 ± 0.1
318.15 K, x1 = 0.7852 | 1250.46 ± 20 | 1368 ± 8.3 | 2.786 ± 0.1
318.15 K, x1 = 0.8914 | 1221.22 ± 20 | 1414.5 ± 8.6 | 2.934 ± 0.1
318.15 K, x1 = 1 | 1191.25 ± 20 | 1464.8 ± 8.9 | 3.022 ± 0.1
